US20050042209A1, “MUC1 extracellular domain and cancer treatment compositions and methods derived therefrom” (priority 2000, published 2005)
Like-named read-outs stand apart in the source and are kept apart here. d = 2'-deoxy (DNA); r = 2'-OH (RNA)

Legend:
MUC1 [1] = conditions: for MUC1 protein (immunoblot): 0.8 μM
Experimental: Cell Culture: Human MCF-7 breast carcinoma and HeLa cervical carcinoma cella (obtained form the ATCC, Manassas, Va.) were grown in DMEM (high glucose; Mediatech, Cellgrow) supplemented with 10% heat-inactivated fetal calf serum (FCS) and 2 mM L-glutamate.
Immunoblot analysis: Cells were lysed in ice-cold lysis buffer (20 mM Tris-HCl, pH 8.0, 150 mM NaCl, 1% Triton-X-100, 1 mM phenylsulfonyl fluoride, 1 mM DTT, 10 μgm/ml aprotinin) for 30 min. Lysates were cleared by centrifugation for 20 min. at 4° C. as described (Yin et al, 2001). Proteins were separated by SDS-PAGE, transferred to nitrocellulose and probed with anti-DF3/MUC1 (Kufe, U.S. Pat. No. 5,506,34) or anti-β-actin (Sigma). The antigen-antibody complexes were visualized by enhanced chemiluminescence (ECL; Amersham Life Sciences).
CDDO downregulates MUC1 expression: MUC1-positive cells were treated with CDDO at concentrations of 1, 3 and 5 μM.

3Y1 fibroblasts = assay: Apoptosis assays (TUNEL, sub-G1 DNA) in 3Y1 cells; assay type: cell-based, Rat
Experimental: (§1) Cell culture. Rat 3Y1 fibroblasts stably expressing the empty vector or full-length MUC1 (19) were cultured in Dulbecco's modified Eagle's medium containing 10% heat-inactivated fetal calf serum, 100 units/ml penicillin, […] streptomycin and 2 mM L-glutamine. Cells were treated with 25 mM LY294002 (Sigma), 10 mM 1-b-D-arabinofuranosycyltosine (ara-C; Sigma) or 50 mM gemcitabine (Eli Lilly).
Apoptosis assays. For TUNEL staining, cells were fixed in 4% paraformaldehyde, permeabilized in 0.1% Triton X-100/0.1% sodium citrate for 2 min and processed according to the manufacturer's instructions (In Situ Cell Death detection kit, fluorescein; Roche). For analysis of sub-G1 DNA, cells were washed with PBS, fixed in 70% ethanol, incubated with 2.5 mg/ml propidium iodide and 50 mg/ml RNase, and then monitored by FACScan.
MUC1 attenuates ara-C- and gemcitabine-induced apoptosis. To determine if MUC1 affects induction of apoptosis by ara-C, the 3Y1/vector and 3Y1/MUC1 cells were analyzed for TUNEL staining and sub-G1 DNA. […] Moreover, ara-C treatment of 3Y1/vector cells was associated with over 40% apoptosis as determined by sub-G1 DNA analysis.
To extend these observations to other anti-cancer agents, we treated the 3Y1/vector and 3Y1/MUC1 cells with gemcitabine. As determined by analysis of sub-G1 DNA and as found with ara-C, gemcitabine-induced apoptosis was attenuated in 3Y1/MUC1, as compared to 3Y1/vector, cells.

MUC1 [2] = assay: Western blot of MUC1 after siRNA transfection; assay type: cell-based, human; conditions: MCF-7 cells; siRNA 0.2 micromolar; FIG. 5, FIG. 6
Source text: Cell Culture: Human MCF-7 breast cancer cells were maintained in DMEM supplemented with 10% heat inactivated fetal bovine serum (FBS) and 1% penicillin-streptomycin mixture. Human A549 non-small cell lung cancer cells were maintained in RPMI1640 medium supplemented with 10% FBS and 1% penicillin-streptomycin mixture.
siRNAs: Five different double stranded anti-MUC1 siRNAs were designed: one against the target sequence SEQ ID NO: 63, i.e., […], with sense and antisense strands as shown in SEQ ID NO: 64 and SEQ ID NO: 65 respectively (hereinafter siRNA #1); one against the target sequence SEQ ID NO: 42, i.e., […], with sense and antisense strands as shown in SEQ ID NO: 43 and SEQ ID NO: 44 respectively (hereinafter siRNA #2); one against the target sequence SEQ ID NO: 21, i.e., […], with sense and antisense strands as shown in SEQ ID NO: 22 and SEQ ID NO: 23 respectively (hereinafter siRNA #3); one against the target sequence SEQ ID NO: 66, i.e., […], with sense and antisense strands as shown by SEQ ID NO: 67 and SEQ ID NO: 68 respectively (hereinafter siRNA #4); and one against target sequence SEQ ID NO: 69, i.e., […], with sense and antisense strands as shown by SEQ ID NO: 70 and SEQ ID NO: 71 respectively (hereinafter siRNA #5). A control siRNA was designed against the scrambled target SEQ ID NO: 72 with sense and antisense strands as shown by SEQ ID NO: 73 and SEQ ID NO: 74 respectively. Each RNA sense oligonucleotide (50 μM) was combined with equal volume of antisense oligonucleotide (50 μM) in an annealing buffer (20 mM KCl, 6 mM HEPES-KOH, pH 7.5, 0.2 mM MgCl2). The solution was incubated for 1 min at 90° C. to denature secondary structure, and placed at 37° C. for 1 hour to anneal the complementary strands. The subsequent double stranded RNAs were used as the anti-MUC1 siRNA.
Transfection: Cells (1-3×10^5 cells/well) were plated in 6-well plates in growth medium without antibiotics, and incubated overnight. After washing cells once with Opti-MEM I (Invitrogen), 800 μL of fresh Opti-MEM I and 200 μL of the Reagent (Invitrogen) were added to the cultured cells. Four hours later, 300 μL of FBS was added to the cultured cells.
Western Blot Analysis: Cell were passed a day before transfection. MUC1 siRNA (0.2 micromolar) was added with oligofectamine to cells in 0% FBS. Four hours later serum was added to a final concentration of 10%. After various time intervals (48 h, 72 h and 96 h), cells were washed and total cell lysates were prepared. Proteins were separated from cell lysates by SDS-PAGE, transferred to nitrocellulose and analyzed by immunoblotting with anti-DF3 antibodies.

[3] = test system: ZR-75-1 breast carcinoma cells; assay: Apoptosis assay (sub-G1 DNA) in ZR-75-1 cells; assay type: cell-based, human; conditions: ZR-75-1 cells; 10 and 50 μM etoposide
Experimental: Apoptosis assay: Apoptotic cells were quantified by analysis of sub-G1 DNA. Cells were harvested, washed with PBS, fixed with 80% ethanol, and incubated in PBS containing 20 ng/ml RNase (Roche) for 60 min at 37° C. Cells were stained with 40 μg/ml propidium iodide (Sigma) for 30 min at room temperature in the dark. DNA content was analyzed by flow cytometry (EPICS XL-MCL, Coulter Corp.).
As a control, stable transfection of ZR-75-1 cells with the empty reterovirus had no effect on MUC1 expression. […] By contrast, CDDP treatment of ZR-75-1/MUC1siRNA cells was associated with a clear loss of ΔΨm. In concert with these findings, cytochrome C release, as measured by immunoblot, was attenuated in CDDP-treated ZR-75-1/vector cells, as compared to ZR-75-1/MUC1siRNA cells. […] Treatment of ZR-75-1/vector cells with CDDP was associated with the induction of approximately 25% apoptosis.

MUC1 [4] = assay: MUC1 induction by oxidative and genotoxic stress (immunoblot); conditions: MCF-7 cells
Experimental: To determine whether MUC1 is induced in response to oxidative stress, MCF-7 cells were treated with hydrogen peroxide. Cell lysates were analyzed by immunoblotting with anti-DF3/MUC1 antibody. Lysates were prepared by suspending MCF-7 cells in lysis buffer (50 mM Tris, pH 7.6, 150 mM NaCl, 1 mM PMSF, 3 mM NaF, 1 mM sodium vandate, 1 mM DTT with protease inhibitors and either 1% NP-40 or 1% Brij-96) for 30 min. on ice. Lysates were cleared by centifugation and equal amounts of proteins were resolved by SDS-PAGE. Proteins were then transferred to nitrocellulose filters, blocked by incubation in 5% non-fat dry milk in PBS with 0.05% Tween-20 and probed with anti-MUC1 antibody (Pandey et al., 1995). Anti-actin was used as a control.
Similar studies were performed with genotoxic agents.

[5] = test system: intrinsic apoptotic pathway; assay: Activation of the intrinsic apoptotic pathway in 3Y1 cells; assay type: cell-based, Rat; conditions: for mitochondrial transmembrane potential: 10 mM ara-C
Experimental: as §1
Immunoblot analysis. Whole cell lysates and cytoplasmic fractions were prepared from subconfluent cells as described (Li et all., 1998; Li et al., 2001).
Assessment of mitochondrial transmembrane potential. Cells were incubated with 50 ng/ml Rhodamine 123 (Molecular Probes, Eugene, Oreg.) for 15 min at 37° C. After washing with PBS, samples were analyzed by flow cytometry using 488 nm excitation and measurement of emission through a 575/26 (ethidium) bandpass filter.
Isolation of mitochondria. Mitochondria were purified as described (Kumar et al., 2003).
MUC1 blocks activation of the intrinsic apoptotic pathway. Increases in phospho-Bad and Bcl-xL protect against apoptosis induced by activation of the intrinsic mitochondrial pathway (Van Heiden et al., 1997; Datta et al., 1995). To assess the effects of MUC1 on chemosensitivity, we treated cells with ara-C, an antimetabolite that induces release of mitochondrial cytochrome c and thereby apoptosis (Major et al., 1981; Kojima et al., 1998). Exposure of 3Y1/vector-A and -B cells to ara-C was associated with a decrease in mitochondrial transmembrane potential (FIG. 3A). […] Moreover, caspase-3-mediated cleavage of PKCd (Emoto et at., 1995) was attenuated in the MUC1 expressing cells. […] These findings indicate that MUC1 attenuates ara-C-induced activation of the intrinsic apoptotic pathway.

HCT116 cells = assay: Apoptosis (sub-G1 DNA, TUNEL) in HCT116 transfectants; assay type: cell-based, human; conditions: HCT116/vector cells
Experimental: Methods. Apoptotic cells were quantified by analysis of sub-G1 DNA and TUNEL staining. To assess sub-G1 DNA content, cells were harvested, washed with PBS, fixed with 80% ethanol, and incubated in PBS containing 20 ng/ml RNase (Roche) for 60 min at 37° C. Cells were then stained with […] propidium iodide (Sigma) for 30 min at room temperature in the dark. DNA content was analyzed by flow cytometry (EPICS XL-MCL, Coulter Corp.). Apoptotic cells with DNA fragmentation were detected by staining with the In Situ cell death detection kit (TUNEL; Roche Applied Science) and visualized by confocal microscopy (ZEISS LSM510). After staining, cells were analyzed by flow cytometry. Other experimental procedures and methods were as described in Example 15.
Results. To determine if MUC1 affects the induction of apoptosis by CDDP, cells were analyzed for sub-G1 DNA content. […] Stimulation of cell surface death receptors with TNF-α or the TNF-related apoptosis inducing factor TRAIL is associated with activation of the extrinsic apoptotic pathway. To determine if MUC1 affects death receptor-induced apoptosis, HCT116 cells were treated with TNF-α.

COC(=O)[C@]12CCC(C)(C)C[C@H]1[C@H]1C(=O)C=C3[C@@]4(C)C=C(C#N)C(=O)C(C)(C)[C@@H]4CC[C@@]3(C)[C@]1(C)CC2 [CDDO-Me, CDDO methyl ester]
MUC1 expression (immunoblot) (MUC1 [1]; 1 μM, 12 hr and 24 hr): detectable at 12 hr and nearly complete at 24 hr

Nc1ccn([C@@H]2O[C@H](CO)[C@@H](O)C2(F)F)c(=O)n1 [gemcitabine]
gemcitabine-induced apoptosis (sub-G1 DNA) (3Y1 fibroblasts; 3Y1/MUC1 compared to 3Y1/vector cells, 50 mM gemcitabine): attenuated

N[C@@H](CCC(=O)N[C@@H](CS)C(=O)NCC(=O)O)C(=O)O [GSH, glutathione]
CDDO-, CDDO-Me-, CDDO-Im- and CDDO-Pr-Im-induced decreases in MUC1 (MUC1 [1]; cells treated with antioxidant): blocked the effects

siRNA #3: double stranded anti-MUC1 siRNA, target SEQ ID NO: 21, sense SEQ ID NO: 22, antisense SEQ ID NO: 23 (sense AAGGAGACUUCGGCUGCCCTT; antisense GGGCAGCCGAAGUCUCCUUTT; sugars from the 5' end r19 d2, backbone not given here)
MUC1 expression at the protein level (immunoblot) (MUC1 [2]): downregulation of MUC1 expression

CC1(C)CC[C@]2(C(=O)n3ccnc3)CC[C@]3(C)[C@H](C(=O)C=C4[C@@]5(C)C=C(C#N)C(=O)C(C)(C)[C@@H]5CC[C@]43C)[C@@H]2C1 [CDDO-Im, imadzole CDDO]
MUC1 protein (immunoblot) (MUC1 [1]): decreased levels

2-propyl-imadazole CDDO [CDDO-Pr-Im]
MUC1 protein (immunoblot) (MUC1 [1]): decreased levels

COc1cc([C@@H]2c3cc4c(cc3[C@@H](O[C@@H]3O[C@@H]5CO[C@@H](C)O[C@H]5[C@H](O)[C@H]3O)[C@H]3COC(=O)[C@H]23)OCO4)cc(OC)c1O [etoposide]
sensitivity on knocking-down MUC1 expression [3]: increased substantially

COc1cccc2c1C(=O)c1c(O)c3c(c(O)c1C2=O)C[C@@](O)(C(C)=O)C[C@@H]3O[C@H]1C[C@H](N)[C@H](O)[C@H](C)O1 [daunorubicin]
MUC1 expression (immunoblot) (MUC1 [4]): rapid and transient induction

Nc1ccn([C@@H]2O[C@H](CO)[C@@H](O)[C@@H]2O)c(=O)n1 [ara-C, 1-b-D-arabinofuranosycyltosine]
ara-C-induced apoptosis (3Y1 fibroblasts; 3Y1/MUC1 cells): significantly attenuated | apoptosis (sub-G1 DNA analysis) (3Y1 fibroblasts; 3Y1/vector cells): over 40% | TUNEL staining (3Y1 fibroblasts; 3Y1/vector, but not 3Y1/MUC1, cells): substantial induction | mitochondrial transmembrane potential ([5]; 3Y1/MUC1 cells): apparent increase | activation of caspase-9 ([5]; 3Y1/MUC1 compared to 3Y1/vector cells): attenuated | release of cytochrome c into the cytosol ([5]; 3Y1/vector and 3Y1/MUC1 cells): release of cytochrome c into the cytosol of 3Y1/vector, and not 3Y1/MUC1 | mitochondrial transmembrane potential ([5]; 3Y1/vector-A and -B cells): decrease | caspase-3-mediated cleavage of PKCd ([5]; MUC1 expressing cells): attenuated

siRNA #5: double stranded anti-MUC1 siRNA, target SEQ ID NO: 69, sense SEQ ID NO: 70, antisense SEQ ID NO: 71 (sense GGUUUCUGCAGGUAAUGGUTT; antisense ACCAUUACCUGCAGAAACCTT; sugars from the 5' end r19 d2, backbone not given here)
MUC1 expression at the protein level (immunoblot) (MUC1 [2]): downregulation of MUC1 expression

siRNA #4: double stranded anti-MUC1 siRNA, target SEQ ID NO: 66, sense SEQ ID NO: 67, antisense SEQ ID NO: 68 (sense GUUCAGUGCCCAGCUCUACTT; antisense GUAGAGCUGGGCACUGAACTT; sugars from the 5' end r19 d2, backbone not given here)
MUC1 expression at the protein level (immunoblot) (MUC1 [2]): downregulation of MUC1 expression

TNF-α
apoptosis (HCT116 cells; TNF-α alone): failed to induce apoptosis | apoptosis (HCT116 cells; in the presence of cycloheximide (CHX), FIG. 18): induction of HCT116/vector cell apoptosis
